Data on 9 compounds can be found in article PMC5575254, “An allosteric ligand-binding site in the extracellular cap of K2P channels” (Nature Communications, 2017).

The subject of one assay is K2P channels. On the set-up: method as in PMID 9628867, PMID 8605869. As to conditions: ref [26], [27]; cited from earlier work.
Another assay deals with T1, TRAAK (Homo sapiens, UniProt Q9NYG8).
T1 construct: expressed in transfected cells; host or cells: CHO cells, transient transfection
T1 sequence (Q9NYG8 1-393): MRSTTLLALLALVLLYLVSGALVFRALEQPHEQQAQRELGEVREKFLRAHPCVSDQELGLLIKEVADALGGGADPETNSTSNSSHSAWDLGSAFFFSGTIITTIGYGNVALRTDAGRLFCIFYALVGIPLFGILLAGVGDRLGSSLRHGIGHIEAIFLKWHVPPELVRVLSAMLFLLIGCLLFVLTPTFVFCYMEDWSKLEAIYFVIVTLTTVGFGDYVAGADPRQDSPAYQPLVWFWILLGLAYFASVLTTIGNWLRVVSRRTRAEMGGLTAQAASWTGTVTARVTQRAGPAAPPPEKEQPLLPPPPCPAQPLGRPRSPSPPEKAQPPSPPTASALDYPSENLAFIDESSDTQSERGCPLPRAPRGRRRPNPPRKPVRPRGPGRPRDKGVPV
The experiment in a line: Whole-cell voltage clamp of CHO cells expressing TRAAK. Type of assay: cell-based. As to conditions: for IC50: whole-cell, CHO cells, WT TRAAK, mean ± s.e.m. The source says:
(§1) cDNA of the human TREK-1, TREK-2 and TRAAK channels were subcloned into the pEGFPN1 expression vector (Invitrogen), respectively. Mutations were introduced into TREK-1 or TRAAK by PCR using the QuickChange XL sitedirected mutagenesis kit (Agilent Technologies) and were subsequently confirmed by DNA sequencing.
(§2) Chinese hamster ovary (CHO) cells were provided by the Cell Bank of Chinese Academy of Sciences (Shanghai, China). CHO cells were maintained in DMEM/F12 (Gibco) supplemented with 10% fetal bovine serum (Gibco) and 100 μg ml^−1 penicillin-streptomycin (Cellgro) in a humidified incubator at 37 °C (5% CO2). For electrophysiology experiments, cells plated in 35 mm tissue culture dishes (Corning Incorporated) were transiently transfected with the plasmids using PolyJet™ reagent (SignaGen) according to the manufacturer’s instructions. Primers used in this study are listed in Supplementary Table 4.
(§3) All electrophysiological recordings were obtained using patch-clamp recordings in two different configurations: (1) whole cell for macroscopic current dose–response curves; and (2) outside-out and inside-out for macroscopic currents recordings.
(§4) All patch-clamp recordings were conducted 36–96 h after transfection with an Axopatch-200B amplifier (Molecular Devices) at room temperature (23–25 °C). The microelectrodes fashioned from 1.5 mm thin-walled borosilicate glass with filament were pulled from Flaming/Brown type micropipette puller (P-97; SUTTER INSTRUMENT) with the resistances of 3–7 MΩ (whole cell) or 7–15 MΩ (outside-out) when filled with a solution containing (in mM): 140 KCl, 2 MgCl2, 10 EGTA, 1 CaCl2, 10 HEPES (pH 7.3, adjusted with KOH). External solution contained (in mM): 150 NaCl, 5 KCl, 0.5 CaCl2, 1.2 MgCl2, 10 HEPES (pH 7.3, adjusted with NaOH). The current signals were filtered at 1 kHz and digitized at a 10 kHz sampling frequency by using DigiData 1440 A.
(§5) Data of whole-cell voltage clamp experiments were fitted using doseResp function. The half inhibition concentrations were derived from fits of the dose–response curves to the function:1 I/I0=A1+A2-A1/1+10^logx0-xP, where I 0 and I are current amplitudes before and after application of inhibitors; A 1 and A 2 are constants between 0 and 1; x is the concentration of inhibitor; x o is the concentration when 50% inhibition was reached (IC50), P is the Hill constant.

For assay [1], the target named is T2, TREK-2 (Homo sapiens, UniProt P57789).
T2 construct: expressed in transfected cells; host or cells: CHO cells, transient transfection
T2 sequence (P57789 1-538): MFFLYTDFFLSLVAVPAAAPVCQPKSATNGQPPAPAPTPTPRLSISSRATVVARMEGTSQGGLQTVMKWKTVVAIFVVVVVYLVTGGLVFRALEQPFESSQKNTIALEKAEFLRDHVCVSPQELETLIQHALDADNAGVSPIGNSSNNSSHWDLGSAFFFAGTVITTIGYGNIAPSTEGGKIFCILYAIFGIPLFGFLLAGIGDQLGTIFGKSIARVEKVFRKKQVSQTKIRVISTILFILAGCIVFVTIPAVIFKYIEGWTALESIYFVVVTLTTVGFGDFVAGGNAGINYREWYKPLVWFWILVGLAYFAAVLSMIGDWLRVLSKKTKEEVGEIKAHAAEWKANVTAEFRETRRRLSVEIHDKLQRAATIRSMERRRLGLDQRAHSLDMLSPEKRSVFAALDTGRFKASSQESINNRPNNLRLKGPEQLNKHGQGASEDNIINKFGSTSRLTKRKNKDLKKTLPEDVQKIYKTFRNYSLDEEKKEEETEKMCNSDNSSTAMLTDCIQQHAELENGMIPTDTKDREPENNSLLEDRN
The assay is described as follows: Whole-cell voltage clamp of CHO cells expressing TREK-2. The assay is classed as cell-based. As to conditions: mean ± s.e.m.
Excerpt: as §1, §2, §3, §4, §5

For another assay, the target named is T3, TREK-1 channel (Homo sapiens, UniProt O95069).
T3 construct: expressed in transfected cells; host or cells: CHO cells, transient transfection
T3 sequence (O95069 1-411 isoform O95069-2): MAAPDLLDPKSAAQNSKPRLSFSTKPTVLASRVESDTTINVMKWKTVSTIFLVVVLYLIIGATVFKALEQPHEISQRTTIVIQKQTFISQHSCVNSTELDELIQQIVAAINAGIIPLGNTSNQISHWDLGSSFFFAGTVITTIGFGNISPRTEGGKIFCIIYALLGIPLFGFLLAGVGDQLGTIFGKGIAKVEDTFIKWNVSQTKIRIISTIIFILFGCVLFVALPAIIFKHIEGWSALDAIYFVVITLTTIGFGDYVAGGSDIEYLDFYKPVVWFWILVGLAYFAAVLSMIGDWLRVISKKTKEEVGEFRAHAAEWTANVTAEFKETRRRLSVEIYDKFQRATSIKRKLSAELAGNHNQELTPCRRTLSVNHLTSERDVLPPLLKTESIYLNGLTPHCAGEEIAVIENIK
The assay is described as follows: Whole-cell voltage clamp of CHO cells transiently transfected with TREK-1. Type of assay: cell-based. As to conditions: whole-cell, CHO cells, WT TREK-1, mean ± s.e.m; for IC50: read-out: half-maximal inhibition concentration (IC50), TREK-1.
Excerpt: as §1, §2, §3, §4, §5

The next assay has as its system TREK channels. As to conditions: ref [7], [16]; cited from earlier work.
For the next assay, the system named is mice. The experiment in a line: Forced swimming test. Type of assay: in vivo, Male C57BL/6 mice. As to conditions: chronic i.p. administration 10 days; TKDC 0.5, 1, 5 mg kg-1; fluoxetine 10 mg kg-1; vs vehicle. The protocol:
Male C57BL/6 mice, aged 8 weeks (weighing 18–20 g) were used for acute and chronic drug administration and behavioral tests. The mice were housed four per cage under a 12-h light–dark cycle. Mice were raised under stable conditions with food and water ad libitum. All animal studies and experimental procedures were approved by the Animal Care Committees of the Shanghai Institute of Materia Medica, Chinese Academy of Sciences, and experiments were carried out in accordance with EU Directive 2010/63/EU on the protection of animals used for scientific purposes. […] The mice were removed to a sound-attenuating testing room 3–4 h before testing. The behavioral tests were carried out 30 min and 24 h after acute and chronic drugs administration, respectively.
The mice were performed under normal light. The apparatus was a transparent Plexiglas cylinder with 30 cm height × 10 cm diameter and the water temperature at 23–25 °C were set to prevent mice from touching the bottom with their limbs. Mice were allowed to swim for 8 min, and their activity was videotaped. There was an extra 15-min swimming in the previous day. The duration of immobility defined as floating or remaining motionless was assessed. To avoid extremely active at the beginning of swimming, the first 2 min of swimming was also excluded as the tail suspension test. […]

The subject of assay [2] is TREK-2. On the set-up: method as in PMID 25409575, PMID 18417474, PMID 12606773, PMID 16513667. As to conditions: binds D135; ref [22]-[25]; cited from earlier work.
The subject of the next assay is I110D TREK-1 mutant. The arrangement: method as in PMID 25409575. As to conditions: ref [22]; cited from earlier work.
The test system of a further assay is TASK-3. On the set-up: method as in PMID 25409575, PMID 18417474, PMID 12606773, PMID 16513667. As to conditions: binds E70; ref [22]-[25]; cited from earlier work.
For assay [3], the system named is TREK-1. On the set-up: method as in Braun et al. [22]. As to conditions: ref Braun et al. [22]; cited from earlier work.
For assay [4], the system named is TREK-1. On the set-up: method as in earlier work. As to conditions: ref [2] Borsotto M, et al. (2015); cited from earlier work.

As for `Nc1ccncc1` [4-aminopyridine], in the assay with K2P channels, the “sensitivity of K2P channels to classical potassium channel pore blockers” value (shortened to “sensitivity of K2P channels”) is on record as “insensitivity”.
Take `O=C(CNc1ccc(Cl)cc1)N1CCc2ccccc2C1` [28NH, 2-((4-chlorophenyl)amino)-1-(3,4-dihydroisoquinolin-2(1H)-yl)ethanone]: the “IC50 for TRAAK relative to the value obtained with TKDC” value on TRAAK (28NH vs TKDC) is “almost sevenfold lower”. This compound also had an IC50 against TRAAK of 11.8 ± 2.1 µM. The “IC50, TREK-2” value on TREK-2 [1] was “comparable to those observed for TKDC-induced inhibitions”. Moreover, the “half-maximal inhibition concentration (IC50), TREK-1” value on TREK-1 channel is recorded as “comparable to those observed for TKDC-induced inhibitions”.
As for `COc1ccccc1C(=O)Nc1cc(C(C)C)ccc1O` [TKN1], the values for the IC50 against TRAAK, against TREK-2 [1] and on TREK-1 channel were 15.7 ± 3.1 µM, 4.4 ± 1 µM and 6.5 ± 1.7 µM, respectively.
Take `Cc1cc(NC(=O)c2cccs2)cc(-c2nc3ccccc3o2)c1O` [TKN2]: the IC50 against TRAAK came out at 10.3 ± 1.5 µM; at TREK-2 [1], 1.7 ± 0.8 µM; on TREK-1 channel it was 3.8 ± 0.6 µM.
In the case of `[Cs+]` [cesium ion], the “sensitivity of K2P channels” value in the assay with K2P channels is listed as “insensitivity”.
Regarding `CNCCC(Oc1ccc(C(F)(F)F)cc1)c1ccccc1` (centres unmarked) [fluoxetine, reference compound], the “effect on TREK channels” value in the assay on TREK channels is “can also inhibit TREK channels”. Further, the “immobility in the forced swimming test” value in the assay with mice was “did not show antidepressant effects”.
With `N.N.N.N.N.N.N.N.N.N.N.N.N.N.[Cl-].[Cl-].[Cl-].[Cl-].[Cl-].[Cl-].[O-2].[O-2].[Ru+3].[Ru+3].[Ru+4]` [ruthenium red], in the assay on TREK-2 [2], the “effect on TREK-2” value is recorded as “inhibit”. Also, in the assay on I110D TREK-1 mutant, the “effect on I110D TREK-1 mutant” value is listed as “inhibits”. Also, the “effect on TASK-3” value with TASK-3 is recorded as “inhibit”. In addition, the “sensitivity of TREK-1” value in the assay with TREK-1 [3] was “not sensitive”.
As to `CC[N+](CC)(CC)CC` [tetraethylammonium], the “sensitivity of K2P channels” value with K2P channels is reported as “insensitivity”.
With spadin, the “effect on TREK-1” value in the assay with TREK-1 [4] is “specifically blocks the TREK-1”.
